In article PMC6646333 (Nature Communications, 2019):
≈ marks a conversion by molar mass, not a printed value.

Assays:
E. faecalis ATCC29212 = experiment: MIC, broth microdilution, E. faecalis ATCC29212; assay type: cell-based, Enterococcus faecalis; details: for MIC, E. faecalis ATCC29212: broth microdilution, 0.01% polysorbate 80
Description: (§1) MIC[18] was tested by broth microdilution according to CLSI guidelines. The state of all teixobactin analogs is amorphous, and the compounds are in the salt form of trifluoroacetates. Analogs were stored in DMSO in the concentration of 10 mg/ml. The test medium for most species of bacteria was cation adjusted Mueller–Hinton Broth containing 0.01% polysorbate 80 to prevent analogs binding to plastic surfaces. […] For the test of Streptococci, MHB contains 3% lysed horse blood (Cleveland Scientific, Bath, OH). The concentration of cell was ~5 × 10^5 cells ml^−1. […] Besides the standard strains from ATCC, all the clinical isolates are from 302 hospital. The assay was done three times to confirm results (n = 3).

E. faecalis TH4130 = experiment: MIC, broth microdilution, E. faecalis TH4130; assay type: cell-based, Enterococcus faecalis; details: for MIC, E. faecalis TH4130: broth microdilution, 0.01% polysorbate 80
Description: as §1

E. faecalis TH4132 = experiment: MIC, broth microdilution, E. faecalis TH4132; assay type: cell-based, Enterococcus faecalis; details: for MIC, E. faecalis TH4132: broth microdilution, 0.01% polysorbate 80
Description: as §1

E. faecalis TH4126 = experiment: MIC, broth microdilution, E. faecalis TH4126; assay type: cell-based, Enterococcus faecalis; details: for MIC, E. faecalis TH4126: broth microdilution, 0.01% polysorbate 80
Description: as §1

VRE TH4939 = experiment: MIC, broth microdilution, VRE TH4939; assay type: cell-based, vancomycin resistant Enterococcus faecalis; details: for MIC, VRE TH4939: broth microdilution, 0.01% polysorbate 80
Description: as §1

VRE TH4937 = experiment: MIC, broth microdilution, VRE TH4937; assay type: cell-based, vancomycin resistant Enterococcus faecalis; details: for MIC, VRE TH4937: broth microdilution, 0.01% polysorbate 80
Description: as §1

MRSA BAA-1695 = experiment: MIC, broth microdilution, MRSA BAA-1695; assay type: cell-based, Staphylococcus aureus; details: for MIC, MRSA BAA-1695: broth microdilution, 0.01% polysorbate 80
Description: as §1

MRSA TH4115 = experiment: MIC, broth microdilution, MRSA TH4115; assay type: cell-based, Staphylococcus aureus; details: for MIC, MRSA TH4115: broth microdilution, 0.01% polysorbate 80
Description: as §1

S. aureus TH4112 = experiment: MIC, broth microdilution, S. aureus TH4112; assay type: cell-based, Staphylococcus aureus; details: for MIC, S. aureus TH4112: broth microdilution, 0.01% polysorbate 80
Description: as §1

S. aureus ATCC29213 = experiment: MIC, broth microdilution, S. aureus ATCC29213; assay type: cell-based; details: Staphylococcus aureus, broth microdilution (CLSI), MHB + 0.01% polysorbate 80, five independent experiments ± s.d. (n = 5)
Description: as §1

MRSA ATCC33591 = experiment: MIC, broth microdilution, MRSA ATCC33591; assay type: cell-based; details: Staphylococcus aureus; broth microdilution (CLSI), MHB + 0.01% polysorbate 80; five independent experiments ± s.d. (n = 5)
Description: as §1

S. pneumoniae D39 = experiment: Mouse septicemia protection model; details: for survival number: 5 mg/kg i.v., 6 mice per group
MRSA ATCC 33591 = experiment: Neutropenic mouse thigh infection model; details: 50 mg /kg i.v., 2 h post infection
MRSA = details: ref J Med Chem, 2018, 61, 2009; cited from earlier work
From the text: page 6: Reply: Thanks for the reviewer’s kind comments. […] (please see the reference 34). In the paper published in Scientific Reports, they proposed that two teixobactin bind pyrophosphate-MurNAc and glutamic acid residue of one Lipid II respectively. Undeniably, this is an important discovery. Its structure model also explains experimental obervations that the pyrophosphate-MurNAc moiety is the minimal motif for binding. We selected the similar truncated lipid II i ...

[1] = Enterococcus, VRE, broth microdilution (CLSI), MHB + 0.01% polysorbate 80, 37 °C, 16–20 h, n = 3

CC1(C)S[C@@H]2[C@H](NC(=O)[C@H](N)c3ccccc3)C(=O)N2[C@H]1C(=O)O [Ampicillin]
MIC (E. faecalis ATCC29212; Enterococcus faecalis, ATCC29212, broth microdilution (CLSI), MHB + 0.01% polysorbate 80, 37 °C, 16–20 h, n = 3): 1 µg/mL
MIC, E. faecalis ATCC29212 (E. faecalis ATCC29212; replicate 1 (Source Data)): 1 µg/mL (≈ 2.86 µM)
MIC, E. faecalis ATCC29212 (E. faecalis ATCC29212; replicate 2 (Source Data)): 1 µg/mL (≈ 2.86 µM)
MIC, E. faecalis ATCC29212 (E. faecalis ATCC29212; replicate 3 (Source Data)): 1 µg/mL (≈ 2.86 µM)
MIC (E. faecalis TH4130; Enterococcus faecalis, TH4130, broth microdilution (CLSI), MHB + 0.01% polysorbate 80, 37 °C, 16–20 h, n = 3): 16 µg/mL
MIC, E. faecalis TH4130 (E. faecalis TH4130; replicate 1 (Source Data)): 16 µg/mL (≈ 45.8 µM)
MIC, E. faecalis TH4130 (E. faecalis TH4130; replicate 2 (Source Data)): 16 µg/mL (≈ 45.8 µM)
MIC, E. faecalis TH4130 (E. faecalis TH4130; replicate 3 (Source Data)): 16 µg/mL (≈ 45.8 µM)
MIC (E. faecalis TH4132; Enterococcus faecalis, TH4132, broth microdilution (CLSI), MHB + 0.01% polysorbate 80, 37 °C, 16–20 h, n = 3): 1 µg/mL
MIC, E. faecalis TH4132 (E. faecalis TH4132; replicate 1 (Source Data)): 1 µg/mL (≈ 2.86 µM)
MIC, E. faecalis TH4132 (E. faecalis TH4132; replicate 2 (Source Data)): 1 µg/mL (≈ 2.86 µM)
MIC, E. faecalis TH4132 (E. faecalis TH4132; replicate 3 (Source Data)): 1 µg/mL (≈ 2.86 µM)
MIC (E. faecalis TH4126; Enterococcus faecalis, TH4126, broth microdilution (CLSI), MHB + 0.01% polysorbate 80, 37 °C, 16–20 h, n = 3): > 32 µg/mL
MIC, E. faecalis TH4126 (E. faecalis TH4126; replicate 1 (Source Data)): >32 µg/mL
MIC, E. faecalis TH4126 (E. faecalis TH4126; replicate 2 (Source Data)): >32 µg/mL
MIC, E. faecalis TH4126 (E. faecalis TH4126; replicate 3 (Source Data)): >32 µg/mL
MIC (VRE TH4939; [1]): > 32 µg/mL
MIC, VRE TH4939 (VRE TH4939; replicate 1 (Source Data)): >32 µg/mL
MIC, VRE TH4939 (VRE TH4939; replicate 2 (Source Data)): >32 µg/mL
MIC, VRE TH4939 (VRE TH4939; replicate 3 (Source Data)): >32 µg/mL
MIC (VRE TH4937; [1]): > 32 µg/mL
MIC, VRE TH4937 (VRE TH4937; replicate 1 (Source Data)): >32 µg/mL
MIC, VRE TH4937 (VRE TH4937; replicate 2 (Source Data)): >32 µg/mL
MIC, VRE TH4937 (VRE TH4937; replicate 3 (Source Data)): >32 µg/mL
MIC (MRSA BAA-1695; Staphylococcus aureus, broth microdilution (CLSI), MHB + 0.01% polysorbate 80, 37 °C, 16–20 h, n = 3): > 32 µg/mL
MIC, MRSA BAA-1695 (MRSA BAA-1695; replicate 1 (Source Data)): >32 µg/mL
MIC, MRSA BAA-1695 (MRSA BAA-1695; replicate 2 (Source Data)): >32 µg/mL
MIC, MRSA BAA-1695 (MRSA BAA-1695; replicate 3 (Source Data)): >32 µg/mL
MIC (MRSA TH4115; Staphylococcus aureus, MRSA, broth microdilution (CLSI), MHB + 0.01% polysorbate 80, 37 °C, 16–20 h, n = 3): 32 µg/mL
MIC, MRSA TH4115 (MRSA TH4115; replicate 1 (Source Data)): 32 µg/mL (≈ 91.6 µM)
MIC, MRSA TH4115 (MRSA TH4115; replicate 2 (Source Data)): 32 µg/mL (≈ 91.6 µM)
MIC, MRSA TH4115 (MRSA TH4115; replicate 3 (Source Data)): 32 µg/mL (≈ 91.6 µM)
MIC (S. aureus TH4112; Staphylococcus aureus, TH4112, broth microdilution (CLSI), MHB + 0.01% polysorbate 80, 37 °C, 16–20 h, n = 3): 0.5 µg/mL
MIC, S. aureus TH4112 (S. aureus TH4112; replicate 1 (Source Data)): 0.5 µg/mL (≈ 1.43 µM)
MIC, S. aureus TH4112 (S. aureus TH4112; replicate 2 (Source Data)): 0.5 µg/mL (≈ 1.43 µM)
MIC, S. aureus TH4112 (S. aureus TH4112; replicate 3 (Source Data)): 0.5 µg/mL (≈ 1.43 µM)
MIC (S. aureus ATCC29213): 2 µg/mL
MIC (MRSA ATCC33591): > 16 µg/mL

CN[C@H](CC(C)C)C(=O)N[C@H]1C(=O)N[C@@H](CC(N)=O)C(=O)N[C@H]2C(=O)N[C@H]3C(=O)N[C@H](C(=O)N[C@H](C(=O)O)c4cc(O)cc(O)c4-c4cc3ccc4O)[C@H](O)c3ccc(c(Cl)c3)Oc3cc2cc(c3O[C@@H]2O[C@H](CO)[C@@H](O)[C@H](O)[C@H]2O[C@H]2C[C@](C)(N)[C@H](O)[C@H](C)O2)Oc2ccc(cc2Cl)[C@H]1O [Vancomycin]
survival number (S. pneumoniae D39; 24 h post-infection): 6
survival number (S. pneumoniae D39; 36 h post-infection): 6
survival number (S. pneumoniae D39; 48 h post-infection): 6
Survival rate 48 h after infection (S. pneumoniae D39; single dose 5 mg kg^−1 i.v., 1 h post infection, positive control, six female mice per group): 100%
Log C.F.U. / mouse thigh (MRSA ATCC 33591; mouse 1): 3.903 Log C.F.U. / mouse thigh
Log C.F.U. / mouse thigh (MRSA ATCC 33591; mouse 2): 3.176 Log C.F.U. / mouse thigh
Log C.F.U. / mouse thigh (MRSA ATCC 33591; mouse 3): 3.748 Log C.F.U. / mouse thigh

Arg10-teixobactin
Loss of potency compared with teixobactin (MRSA): more than 4 fold
MIC against MRSA (MRSA): 2 µg/mL
